According to patent US9539272B2, “HDAC 6 inhibitor-based methods for treating cancer” (SLOAN-KETTERING INSTITUTE FOR CANCER RESEARCH, priority 2009, dated 2017):
Where “and” joins values, the source holds several entries; their conditions need not be identical. Identical values can stand only once. Entries after “also recorded” stand apart in the source; their conditions may differ.

Columns and labels:
[1] = test system: acetylated α-tubulin and acetylated histone H3 in LNCaP cells; assay: Accumulation of acetylated α-tubulin and acetylated histone H3 in LNCaP cells (Western blot); type: cell-based, human; conditions: BAHA 1.0 or 1.5 μM, SAHA 1.5 and 2.0 μM
Protocol: 2×10^6 transformed cells were cultured for 24 hrs in a 10 cm tissue culture dish with 10 ml RPMI 1640 medium. HDAC inhibitors and/or other agents were added in concentrations as indicated for each study to the cultures and cell cultured for times indicated. Cells were harvested by scrapping, washed once with PBS, lyzed with histone extraction buffer (1 ml/10^7 cells), which contains 10 mM MgCl2, 10 mM Tris, 25 mM KCl, 1% Triton X-100, 8.6% sucrose and protease inhibitor cocktail (Roche Diagnostics Gmbh, Indianapolis, Ind.), pH 6.5. Cells were centrifuged at 600 g at 4° C. for 5 mins. The supernatants were saved as cell lyates. The pellets (nuclei) were washed once with TE buffer, suspended in 0.4 NH2SO4 (100 μl/10^7 cells), incubated for 1 hr on ice, and centrifuged at 10,000 g for 10 mins at 4° C. The supernatant was collected, mixed with 1 ml acetone, incubated at −20° C. for more than 1 hr, and centrifuged at 10,000 g for 10 mins at 4° C. The pellets were suspended in water (100 μl/10^7 cells). The protein concentrations were measured with Braford reagent (Bio-Rad, Hercules, Calif.).
1×10^6 cells in a 10 cm diameter cell culture dish were washed with PBS, harvested by trypsinization in 0.05% trypsin for LNCaP and 0.25% trypsin for MCF7, A549, HFS and WI38 resuspended in RIPA at 50 μl for every 1×10^6 cells. Antibodies used were: anti-acetylated tubulin (Sigma), anti-HDAC 6 (Santa Cruz Biotechnology), and anti-tubulin (Calbiochem), (Xu et al. Cancer Research, 65:7832-7839, 2005).

recombinant human HDAC1 = recombinant human HDAC1 (Homo sapiens, UniProt Q13547); assay: In vitro HDAC assay with fluorogenic substrate, HDAC 1
Protocol: Inhibition of HDAC 1 and HDAC 6 were analyzed with a fluorogenic substrate according to manufacture's protocol (HDAC assay reagents were purchased from BPS Biosciences, San Diego, Calif.). 50 μl reaction mixture, which contains 1×HDAC assay buffer, 5 units of recombinant human HDAC1 or HDAC 6, 10 μM substrate 3 and 1 μl inhibitor in DMSO, was incubated at 37° C. for 1 hour. […] The fluorescence intensity was measured at excitation of 360 nm and emission of 460 nm with SpectraMax Gemini XS microplate reader (Molecular Devices, Sunny Calif.).

LNCaP cells [2] = assay: Cell growth and viability by trypan blue exclusion, LNCaP
Protocol: (§1) 5×10^4 cells were seeded per well in a 24-well plate and cultured overnight prior to treating with the compound and/or other agents as indicated for each study. Cells were harvested at 24, 48 and 72 hrs after treatment by trypsin digestion. […] At least three independent analyses were performed for each time point.
(§2) To monitor cell growth and viability, cells were seeded in triplicate at 5×10^4 cells in 1 ml of medium in 24-well plates. The drugs were added at the indicated concentrations 24 h after seeding. Cells were harvested by trypsin digestion at 24 h, 48 h and 72 h following drug additions. Cell number and viability were determined by trypan blue exclusion.

MCF-7 cells = assay: Cell growth and viability by trypan blue exclusion, MCF-7; type: cell-based, human; conditions: MCF-7, 72 hrs; 8 μM tubacin, 5 μM SAHA, […] doxorubicin, 100 μM etoposide, alone or plus 8 μM tubacin
Protocol: as §1, §2

HFS cells = assay: Cell viability, normal human foreskin cells (HFS); type: cell-based; conditions: 8 μM tubacin, 5 μM SAHA, alone or together
Protocol: as §1, §2

WI38 cells = assay: Cell viability, normal human embryonic fibroblast WI38; type: cell-based; conditions: 8 μM tubacin, 5 μM SAHA, alone or together
Protocol: as §1

γH2AX = assay: Accumulation of γH2AX in LNCaP cells (Western blot, ImageJ quantitation); type: cell-based, human; conditions: 24 h
Protocol: 1×10^6 cells were seeded in a 10 cm diameter cell culture dish and cultured overnight prior to addition of the indicated drugs, washed with PBS, harvested by trypsinisation and lysed in RIPA buffer (50 mM Tris-HCL pH8.0, 120 mM NaCl, 0.5 mM EDTA, 0.5% NP-40). […] Quantitation of western blots was performed using ImageJ.

LNCaP cells [3] = assay: Microarray analysis of gene expression in LNCaP cells; type: cell-based, human; set-up: Total gene number: dose or concentration left out as unconfirmed
Protocol: Alterations in gene expression were evaluated by microarray using the Illumina human cDNA array containing cDNA probes representing the whole genome (10000 genes). […] Triplicate samples were prepared for each drug treatment at each time point. Poly(A)+ mRNA was isolated from cells using Trizol reagent according to manufacturer's protocol (Invitrogen). The data was analyzed using the Bioconductor packages (www.bioconductor.com) for the R statistical system. The output from Beadstudio was processed using the LUMI package. The normalization method used was quantile and the signal levels were log (base 2) transformed. To determine genes that are differentially expressed between the various sample types, the LIMMA package was used.

LNCaP cells [4] = assay: Quantitative real-time PCR in LNCaP cells; type: cell-based, human; conditions: for expression of Mcm4, Mcm6, Cdt1 and Psf2: quantitative real-time PCR
Protocol: […] of total RNA was reverse-transcribed using the Thermoscript RT-PCR system (Invitrogen) at 52° C. for 1 h. 20 ng of resultant cDNA was used in a Q-PCR reaction using an 7500 Real-Time PCR System (Applied Biosystems) using predesigned primers for DDIT3, DDIT4, Mcm4, Mcm6, Cdt1, Psf2 and GAPDH (Applied Biosystems). Amplification was carried for 40 cycles (95° C. for 15 sec, 60° C. for 1 min). To calculate the efficiency of the PCR reaction, and to assess the sensitivity of each assay, we performed a 6 point standard curve (5, 1.7, 0.56, 0.19, 0.062, and 0.021 ng). Triplicate CT values were averaged, amounts of target were interpolated from the standard curves and normalized to GAPDH (assay Hs99999909_m1).

LNCaP cells [5] = assay: Cell cycle analysis by flow cytometry, LNCaP; type: cell-based, human; conditions: 24 h, propidium iodide
Protocol: Cells were harvested at 24 h culture with the indicated drugs, washed with PBS and fixed in methanol. Cells were then resuspended in a buffer containing […] propidium iodide and […] RNase A. Samples were analysed by flow cytometry using a Becton Dickinson FACSCalibur flow cytometer. Data were collected for 10,000 events and analyzed using FlowJo software.

[6] = test system: acetylated tubulin and acetylated histone H3 in A549 cells; conditions: 24 hrs, tubacin 0.2, 2 or 20 μM; cited from earlier work
[7] = test system: LNCaP HDAC 6 knockdown cells; assay: Cell viability, LNCaP HDAC 6 knockdown cells; type: cell-based, human; conditions: LNCaP HDAC 6 knockdown, 48 hrs
Description: shRNA lentiviral particles targeting different regions of HDAC6 mRNA, HDAC6 KD1 (HDAC6 knockdown 1) at 1.7×10^7 TU/ml and HDAC6 KD2 (HDAC6 knockdown 2) at 1.9×10^7 TU/ml, and a non-targeting ‘scramble’ shRNA control particles (#SHC002V) at 1.1×10^7 TU/ml, were purchased from Sigma-Aldrich and transfected according to the manufacturer's instructions using polybrene (Millipore). The 21-nucleotide sequence corresponding to HDAC6 mRNA for HDAC6 KD1 is 5′-[…]-3′ and for HDAC6 KD2 is 5′-[…]-3′. For each shRNA, 5×10^5 cells were infected at an MOT of 2.

Sequence of recombinant human HDAC1 (Q13547 whole entry): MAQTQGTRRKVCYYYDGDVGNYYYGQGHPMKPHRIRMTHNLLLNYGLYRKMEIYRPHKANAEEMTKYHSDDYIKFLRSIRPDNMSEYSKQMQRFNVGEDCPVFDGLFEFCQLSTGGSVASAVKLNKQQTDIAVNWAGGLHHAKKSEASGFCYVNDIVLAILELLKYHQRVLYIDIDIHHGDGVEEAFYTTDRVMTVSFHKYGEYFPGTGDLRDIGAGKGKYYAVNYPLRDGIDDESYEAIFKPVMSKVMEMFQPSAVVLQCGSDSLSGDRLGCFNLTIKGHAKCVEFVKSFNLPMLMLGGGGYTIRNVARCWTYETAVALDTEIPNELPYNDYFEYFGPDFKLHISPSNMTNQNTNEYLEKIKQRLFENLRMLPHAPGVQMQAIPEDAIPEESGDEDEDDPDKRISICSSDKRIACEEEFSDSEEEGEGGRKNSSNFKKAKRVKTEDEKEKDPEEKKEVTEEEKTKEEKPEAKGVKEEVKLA

Question: For CC(C)(C)OC(=O)Nc1ccc(-c2cc(C(=O)NCCCCCCC(=O)NO)no2)cc1 [BAHA], which “accumulation of acetylated histone H3” value [1] is on record?
Answer: little or no accumulation

Question: And the “accumulation of acetylated α-tubulin” value [1]?
Answer: caused the accumulation

Question: What about the IC50 (recombinant human HDAC1) of the same molecule?
Answer: 53.7 nM

Question: And the cell death (LNCaP cells [2]; LNCaP, 1 μM BAHA)?
Answer: no cell death

Question: And the cell growth (LNCaP cells [2]; LNCaP, 1 μM BAHA)?
Answer: moderate inhibition

Question: Which results are given for O=C(CCCCCCC(=O)Nc1ccc([C@H]2O[C@@H](CSc3nc(-c4ccccc4)c(-c4ccccc4)o3)C[C@@H](c3ccc(CO)cc3)O2)cc1)NO [tubacin]?
Answer: cell death (MCF-7 cells): did not induce MCF-7 cell death; rate of cell growth (MCF-7 cells): somewhat decreased; cell death (HFS cells): did not cause cell death; cell death (WI38 cells): did not cause cell death; accumulation of γH2AX (γH2AX): increased; DDIT3 gene expression change (LNCaP cells [3]; 2 h): * (No detectable change of ≧2-fold); Total gene number (LNCaP cells [3]; 2 h, genes changed ≧2-fold): 1; Downregulated genes (LNCaP cells [3]; 2 h, ≧2-fold): 0; Upregulated genes (LNCaP cells [3]; 2 h, ≧2-fold): 1; DDIT4 gene expression change (LNCaP cells [3]; 8 h): 5.54 fold; Downregulated genes (LNCaP cells [3]; 8 h, ≧2-fold): 1; Total gene number (LNCaP cells [3]; 8 h, ≧2-fold): 7; Upregulated genes (LNCaP cells [3]; 8 h, ≧2-fold): 6; DDIT3 gene expression change (LNCaP cells [3]; 24 h): 7 fold and 7.04 fold; DDIT4 gene expression change (LNCaP cells [3]; 24 h): 6.8 fold; Downregulated genes (LNCaP cells [3]; 24 h, ≧2-fold): 72; Total gene number (LNCaP cells [3]; 24 h, ≧2-fold): 225; Upregulated genes (LNCaP cells [3]; 24 h, ≧2-fold): 153; DDIT4 expression by quantitative real-time PCR (LNCaP cells [4]): upregulation; expression of Mcm4, Mcm6, Cdt1 and Psf2 (LNCaP cells [4]): downregulated; cell cycle distribution (LNCaP cells [5]): increase in G1 arrest; accumulation of acetylated histone H3 [6]: but not acetylated histone H3; accumulation of acetylated tubulin [6]: caused an accumulation; IC50 (recombinant human HDAC1): 82 nM; cell death (LNCaP cells [2]; LNCaP, tubacin alone (8 μM), up to 72 hrs): did not cause cell death; also recorded: did not induce LNCaP cell death

Question: What does the source list for COc1cc([C@@H]2c3cc4c(cc3[C@@H](O[C@@H]3O[C@@H]5CO[C@@H](C)O[C@H]5[C@H](O)[C@H]3O)[C@H]3COC(=O)[C@H]23)OCO4)cc(OC)c1O [etoposide]?
Answer: cell death (MCF-7 cells): 30%; rate of cell growth (MCF-7 cells): markedly decreased; cell death ([7]; 10 μM etoposide): 20%; cell death ([7]; 50 μM etoposide): 35%; cell death ([7]; 100 μM etoposide): 55%; expression of Mcm4, Mcm6, Cdt1 and Psf2 (LNCaP cells [4]): downregulated; cell cycle distribution (LNCaP cells [5]): small increase in cells in G1; cell death (LNCaP cells [2]; LNCaP, 50 μM etoposide, alone or plus 8 μM tubacin, 72 hrs): 50%; cell death (LNCaP cells [2]; LNCaP, 100 μM etoposide, alone or plus 8 μM tubacin, 72 hrs): 80%; cell death (LNCaP cells [2]; wild type LNCaP, 10 μM etoposide, 48 hrs): 10%; cell death (LNCaP cells [2]; wild type LNCaP, 50 μM etoposide, 48 hrs): 30%; cell death (LNCaP cells [2]; wild type LNCaP, 100 μM etoposide, 48 hrs): 40%
